In patent US7211246B2, “Compositions comprising oestrone-3-0-sulphamate and trail (TNF-related apoptosis inducing ligand)” (Sterix Limited, priority 2001, dated 2007):

T1: E1-STS (Homo sapiens, UniProt P08842)
T1 sequence (P08842 22-583): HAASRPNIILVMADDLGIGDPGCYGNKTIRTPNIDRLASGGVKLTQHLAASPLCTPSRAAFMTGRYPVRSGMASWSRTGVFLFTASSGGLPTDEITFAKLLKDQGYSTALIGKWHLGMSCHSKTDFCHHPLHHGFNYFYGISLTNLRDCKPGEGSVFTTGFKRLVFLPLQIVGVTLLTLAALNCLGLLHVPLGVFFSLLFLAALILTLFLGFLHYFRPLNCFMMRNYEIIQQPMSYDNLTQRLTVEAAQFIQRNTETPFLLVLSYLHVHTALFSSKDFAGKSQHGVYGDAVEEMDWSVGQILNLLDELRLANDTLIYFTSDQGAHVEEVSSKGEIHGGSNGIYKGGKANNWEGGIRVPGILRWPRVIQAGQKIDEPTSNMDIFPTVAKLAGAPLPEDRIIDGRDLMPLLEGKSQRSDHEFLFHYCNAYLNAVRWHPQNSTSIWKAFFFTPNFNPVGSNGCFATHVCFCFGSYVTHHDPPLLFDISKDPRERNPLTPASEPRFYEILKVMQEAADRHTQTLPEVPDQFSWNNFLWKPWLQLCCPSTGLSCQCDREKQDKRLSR

B1: TRAIL: Tumour necrosis factor (TNF) related apoptosis inducing ligand; recombinant human TRAIL used in the tests (protein, UniProt P50591 1-281, looked up)
Tumor necrosis factor ligand …: MAMMEVQGGPSLGQTCVLIVIFTVLLQSLCVAVTYVYFTNELKQMQDKYSKSGIACFLKEDDSYWDPNDEESMNSPCWQVKWQLRQLVRKMILRTSEETISTVQEKQQNISPLVRERGPQRVAAHITGTRGRSNTLSSPNSKNEKALGRKINSWESSRSGHSFLSNLHLRNGELVIHEKGFYYIYSQTYFRFQEEIKENTKNDKQMVQYIYKYTSYPDPILLMKSARNSCWSKDAEYGLYSIYQGGIFELKENDRIFVSVTNEHLIDMDHEASFFGAFLVG

What was measured:
E1-STS [1] = biological target: T1, E1-STS; settings: cited from earlier work
E1-STS [2] = biological target: T1, E1-STS; set-up: E1-STS activity in intact MCF-7 cells; endogenous in cells; host or cells: MCF-7 cells; settings: intact MCF-7 cells, 0.1 μM; cited from earlier work
CAL51 cells = assay: Cell Titre 96 Aqueous One Solution cell proliferation assay, CAL51 cells; type: cell-based; settings: 2 days; for cell death compared to treatment with compound alone: in combination with TRAIL (50 or 250 ng/ml)
Protocol: (§1) FIGS. 1A to 1C show effects of 2-MeOEMATE and 2-EtEMATE on TRAIL induced apoptosis in CAL51 and MCF-7 cells. Cell proliferation assays in which CAL51 cells or MCF7 cells were plated at a density of 5,000 in 96 well plates and treated with 0, 0.05, 0.5 or 5 μM MeoEMATE or 2-EtEMATE in the presence of 0, 50 or 250 ng/ml recombinant human TRAIL. Results are the mean of triplicates+/−S.D. and are expressed as a percentage of results for untreated cells.
(§2) Cell proliferation was measured using the Cell Titre 96 Aqueous One Solution Cell proliferation assay (Promega). This is a colorimetric method which determines cell viability and can therefore be used to measure the ability of drugs to cause cell death. The assay is performed by adding the cell proliferation reagent directly to the cells. Metabolically active cells convert the reagent to a coloured formazan product and the absorbance at 490 nm is measured 1–4 hrs after incubation at 37° C.
(§3) For the TRAIL co-operation experiments, CAL-51 of MCF-7 cells were plated at 5,000 cells per well in 96 well plates. CAL-51 cells were treated with 0, 0.05, 0.5 or 5 μM 2-MeOEMATE or 2-EtEMATE in the presence of 0, 50 or 250 ng/ml recombinant human TRAIL. MCF7 cells were treated with 5 μM 2-MeOEMATE or 2-EtEMATE in the presence or absence of 250 ng/ml recombinant human TRAIL. Cell proliferation was measured 2 days (CAL-51) or 1 day (MCF-7) after addition of drugs. Tests were performed in triplicate and data are means of triplicate results+/−S.D. and are expressed as a percentage of results obtained for untreated cells. Experiments on CAL-51 cells were performed 4 times for each compound and once for each compound on MCF-7 cells.

DR5 protein = assay: Western blot of DR5 protein levels in Cal51 cells; type: cell-based; settings: 48 hours, 0.05, 0.5 and 5 μM
Protocol: FIG. 6. […] Western blot showing DR5 protein levels following treatment of Cal51 cells for 48 hours with 0, 0.05, 0.5 and 5 μM of 2-MeOEMATE or 2-EtEMATE. PCNA levels represent corresponding loading controls.
Protein lysates were prepared from CAL51 cells treated with various compounds and analysed for expression of DR5 by immunoblotting (FIG. 6).

DR4 mRNA = assay: RNAse protection assay, DR4 mRNA levels in Cal51 cells; type: cell-based, Human; settings: 0.5 μM, over 48 hours
Protocol: (§4) RNAse protection assay showing DR5, DR4 and GAPDH mRNA levels at 0, 8, 16, 24 and 48 hours following treatment with 0.5 μM 2-MeOEMATE and 2-EtEMATE in Cal51 cells.
(§5) We investigated if the co-operation observed between TRAIL and 2-MeOEMATE or 2-EtEMATE to induce cell death in CAL51 cells was due to upregulation of DR4 and/or DR5 receptors by 2-MeOEMATE and 2-EtEMATE. We used RNAse protection assays to examine the levels of mRNAs for DR4 and DR5 following treatment of CAL51 cells with 2-MeOEMATE and 2-EtEMATE over 48 hours.
(§6) This experiment was performed once. A radiolabeled RNA multi-probe was synthesised (Pharmingen RiboQuant Human Apoptosis Multiprobe template set hAPO-3c) using [α^32P] UTP and […] RNA polymerase. This multi-probe template set allows simultaneous generation of several probes for detection and measurement of apoptosis related genes. […]
(§7) Total RNA was prepared using Trizol reagent (Gibco-BRL) from CAL-51 cells treated with 2-MeOEMATE or 2-EtEMATE for 0, 8, 16, 24 and 48 hrs. […] The gel was dried and analysed by phosphoimaging on the Personal Molecular Imager Fx (Biorad). Protected fragment bands corresponding to DR5 and GAPDH were quantified and expressed as a ratio of DR5/GAPDH to normalise results.

MCF-7 cells = assay: Cell Titre 96 Aqueous One Solution cell proliferation assay, MCF-7 cells; type: cell-based; settings: 24 hrs
Protocol: as §1, §2, §3

caspase 3 = assay: Western blot of caspase 3 activation in Cal51 cells; type: cell-based; settings: Cal51 cells, 48 hours; for activation of caspase 3 compared to compound alone: 5 μM compound in combination with 250 ng/ml TRAIL; for activation of caspase 3 (reduction of unprocessed caspase 3): treatment alone, 5 μM compound or 250 ng/ml TRAIL
Protocol: FIG. 3. Effect of 2-MeOE2bisMATE on caspase 8 and caspase 3 activation and PARP cleavage in Cal51 cells. Western blots showing caspase 8 and caspase 3 unprocessed and active fragments and PARP uncleaved and cleaved products following treatment of Cal51 cells with solvent, 0.05, 0.5 or 5 μM 2-MeOE2bisMATE for 48 hours.
FIG. 5. Effect of 2-MeOE2bisMATE on the timing of caspase 3 and caspase 8 activation and PARP cleavage in Cal51 cells. Western blots showing caspase 3, caspase 8 and PARP unprocessed and cleaved products at 0, 8, 16, 24 and 48 hrs following treatment of Cal51 cells with 5 μM 2-MeOE2bisMATE for 48 hrs or untreated for 48 hrs (48NT).
FIG. 7. Effect of combined treatment of 2-EtEMATE or 2-MeOEMATE and TRAIL on caspase 3 activation in Cal51 cells. Western blots showing caspase 3 activation following treatment of Cal51 cells for 48 hours with solvent, 250 ng/ml TRAIL and 5 μM 2-EtEMATE or 2-MeOEMATE in the presence or absence of 250 ng/ml TRAIL. PCNA levels represent corresponding loading controls. 1, control; 2, THF solvent; 3, TRAIL; 4, 2-EtEMATE; 5,2-EtEMATE+TRAIL; 6, control; 7, THF solvent; 8, TRAIL; 9, 2-MeOEMATE; 10, 2-MeOEMATE+TRAIL
To determine whether caspases might play a role in cell death induced by 2-MeOE2bisMATE and other sulfamoylated oestrogen derivatives, we examined the expression of caspase 3, caspase 8 and PARP by immunoblotting (FIG. 3). […] Therefore, cell death induced by the 2-MeOE2bisMATE in Cal51 cells is associated with caspase activation.
There are two major pathways of apoptosis; cell surface death receptors activate caspases directly via activation of caspase 8 whereas other apoptotic stimuli operate via triggering the release of cytochrome c from mitochondria which subsequently activates caspases. Both pathways ultimately result in activation of caspase 3 and PARP cleavage. Since activation of caspase 8 is an indicator for the direct involvement of death receptors, it is important to determine whether activation of caspase 8 by 2-MeOE2bisMATE precedes or follows caspase 3 activation. We therefore performed time course experiments in Cal51 cells treated with 2-MeOE2bisMATE to order the activation events. Caspase 3 activation was first detected at 16 hours and as expected was followed by PARP cleavage at 24 hours (FIG. 5). Caspase 8 activation was a relatively late event, first detected at 48 hours. Therefore activation of caspase 3 induced by 2-MeOE2bisMATE precedes activation of caspase 8.
To further explore the mechanism for co-operation between sulfamoylated oestrones and TRAIL, we analysed activation of caspase 3 (FIG. 7). […] Therefore, sulfamoylated oestrones and TRAIL cooperate to activate caspase 3.

DR5 mRNA = assay: RNAse protection assay, DR5 mRNA levels in Cal51 cells; type: cell-based, Human; settings: 0.5 μM, between 24 and 48 hours
Protocol: as §4, §5, §6, §7

[3] = 5 μM compound in combination with 250 ng/ml TRAIL
[4] = treatment alone, 5 μM compound or 250 ng/ml TRAIL

Molecule | inhibition of the E1-STS enzyme (E1-STS [1]) | inhibition of E1-STS activity (E1-STS [2]) | cell death compared to treatment with compound alone (CAL51 cells) | DR5 protein levels by western blot (DR5 protein) | DR4 mRNA levels (DR4 mRNA) | cell death (MCF-7 cells; [3]) | cell death (MCF-7 cells; [4]) | activation of caspase 3 compared to compound alone (caspase 3) | activation of caspase 3 (reduction of unprocessed caspase 3) (caspase 3) | DR5 mRNA levels (DR5/GAPDH) compared to untreated control (DR5 mRNA) | TRAIL induced cell death (CAL51 cells; TRAIL alone (50 or 250 ng/ml))
CC12CCC3c4ccc(OS(N)(=O)=O)cc4CCC3C1CCC2=O (stereo not drawn) [EMATE, oestrone-3-sulphamate] | time- and concentration-dependent manner | more than 99% | – | – | – | – | – | – | – | – | –
CCc1cc2c(cc1OS(N)(=O)=O)CCC1C2CCC2(C)C(=O)CCC12 (stereo not drawn) [2-EtEMATE, 2-ethyloestrone-3-O-sulphamate] | – | – | enhanced the amount of cell death | did not detect a significant increase | did not change significantly | 36% | 16% | further enhanced | induced activation of caspase 3 | significantly increased | –
COc1cc2c(cc1OS(N)(=O)=O)CCC1C2CCC2(C)C(=O)CCC12 (stereo not drawn) [2-MeOEMATE, 2-methoxyoestrone-3-O-sulphamate] | – | – | enhanced the amount of cell death | did not detect a significant increase | did not change significantly | 35% | 13% | further enhanced | induced activation of caspase 3 | significantly increased | –
B1 | – | – | – | – | – | – | 12% | – | no detectable caspase 3 activation | – | resistant to TRAIL induced cell death
